In US7094869B2, “Low molecular weight peptidomimetic growth hormone secretagogues” (Genentech, Inc., priority 1994, dated 2006):
Entries after “also recorded” stand apart in the source; their conditions may differ. Where two headings read alike, the source gives them in different places. Non-standard residues stand in square brackets, D forms with d. Residues, ends and D or L forms follow the SMILES beside them.

Tests used:
[1] = target: T1, rat pituitary cells (Rattus norvegicus, UniProt O08725); assay: Rat “pit” cell challenges: combinations with GHRP-6/GHRH, desensitization, somatostatin suppression, GHRP antagonist; format: cell-based
T1 sequence (O08725 whole entry): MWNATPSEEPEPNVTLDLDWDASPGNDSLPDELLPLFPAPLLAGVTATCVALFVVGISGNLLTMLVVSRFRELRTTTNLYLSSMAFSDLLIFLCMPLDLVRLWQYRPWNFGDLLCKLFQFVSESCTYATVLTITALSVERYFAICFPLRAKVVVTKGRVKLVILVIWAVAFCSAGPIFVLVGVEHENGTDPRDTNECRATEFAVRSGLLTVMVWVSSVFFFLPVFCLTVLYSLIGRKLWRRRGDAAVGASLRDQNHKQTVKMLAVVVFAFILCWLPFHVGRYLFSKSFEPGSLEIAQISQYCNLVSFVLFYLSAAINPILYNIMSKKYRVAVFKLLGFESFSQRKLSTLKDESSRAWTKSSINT
Method: Dispersion: Adult female Sprague-Dawley (160-180 g., Charles River) rats were group-caged in a 12:12 light:dark cycle with food and water available ad libitum. Pituitaries from ten rats were removed, the posterior pituitary discarded and the anterior pituitary placed in Hanks' Balanced Salt Solution (HBSS: without calcium chloride, w/o magnesium chloride, w/o magnesium sulfate; Gibco) containing 20 mM HEPES (Gibco) and 100 U/ml penicillin streptomycin (PS: JRH Biosciences). Under sterile conditions, pituitaries were rinsed twice then minced into small fragments with a razor blade. Fragments were resuspended in 5 ml of HBSS/HEPES containing 20 mg collagenase (Serva 17449) and 200 ml of 1 mg/ml DNase (Sigma) for a 40 min. incubation in a 37° C. gyrotory water bath shaker (New Brunswick Scientific Model G76; setting 10). After the incubation, fragments were triturated to yield small clumps and single cells. The cells were centrifuged 1000× g for 5 min, resuspended, counted and plated at a final cell concentration of 100,000 cells/ml. Incubation media was DME low glucose media w/NaHCO3 (Gibco) containing 20 mM hepes, 100 U/ml PS and 10% FBS (Hyclone A-111-L). Cells were plated at 0.5 ml per well in 48 well plates (Falcon) and incubated at 37° C. in 5% C02 for three days. […] The highest concentration of DMSO in media was 0.1%. Stock solutions (1 mM) of rat GHRH, somatostatin (Sigma) and GHRP antagonist HwkWfK were made fresh in media and diluted appropriately. The media used in all challenges and washing steps was DME low glucose with 20 mM Hepes, 100 U/ml PS, 10% FBS. Media was warmed to 37° C. and gassed by placing it into the incubator prior to challenge. On day three, the media was discarded and fresh media (approximately 1 ml) added for the first of three washes. After the last wash, the plate was placed back in the incubator for a 15 min pre-incubation. Then cells were washed 2× (with warmed and gassed media) and fresh 0.5 ml media were added for the second 15 min. pre-incubation. After the second pre-incubation cells were washed 2× as above and 0.5 ml of control and test solutions were added for a final 15 min incubation. After this incubation, the media were removed for subsequent GH ELISA. GH ELISA: A two-site ELISA was used to determine rat GH concentration in the media. Briefly, goat anti-rat GH antibody (lot#19164-20) was used to coat Nunc immunoplates overnight. After blocking and washing, standard (rat GH reference preparation: Parlow) and challenge media is diluted 1:20 prior to GH assay were added for a 1 hr room temperature incubation. STATISTICS: The mean for each group was determined and analyzed by one-way analysis of variance with a post-hoc Student-Newman-Keuls. Significance is defined as P<0.05. The EC50 was calculated using a 4-parameter curve-fit program (Kaleidagraph). Three to four independent EC50s were used to derive the mean and SEM.

[2] = test system: growth hormone secretion; assay: GHRP induced growth hormone secretion, intravenous administration (Rat IV); format: in vivo; details: Table II; iv tail vein injection, anesthetized weanling female rats, serum GH 10 min after injection
Outline: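 Female Sprague Dawley rats (24-30 days, 50-90 g) under intraperitoneal pentobarbitone received graded intravenous tail-vein peptide doses in pH 5.0 sodium acetate/mannitol buffer 20 min post-anaesthesia. Blood by cardiac puncture 10 min after dosing; serum GH measured by rat GH ELISA in duplicate.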

[3] = oral; cited from earlier work
[4] = target: T1, rat pituitary cells
Outline: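 Primary rat anterior pituitary cells, cultured three days in DME low glucose/10% FBS, were washed, pre-incubated twice for 15 min, then challenged 15 min with test compounds (DMSO ≤0.1%) at 37 °C. Released GH was measured by two-site ELISA; EC50 came from 4-parameter fits, mean of three to four independent determinations.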

[5] = Combination GHRP and IGF-1 treatment of normal rats (7 days); format: in vivo, rat; details: 7 days, twice daily sc injections, normal adult female rats; GHRH 300, GHRPs 50, L-692,585 150 μg/dose
Method: The rats were weighed on the day of surgery and randomized into 12 groups of 5/group using a grouping program.
The GH secretagogues were given by sc. injection twice daily, each dose of 100 μl. […] Recombinant human IGF-1 (rhIGF-1) at 2.5 mg/ml in acetate buffer was loaded into osmotic minipumps (Alza, Palo Alto, model 2ML1, pump rate 10.16 μl/hr for 7 days, fill volume 2086 μl). Other pumps were filled with acetate buffer. […] The delivered dose of rhIGF-1 was therefore 610 μg/day.
The next day the osmotic pumps were inserted into rats. […] All rats not receiving rhIGF-1 containing pumps were implanted with pumps delivering the acetate buffer excipient. […] The treatment groups were;
The rats were sacrificed using carbon dioxide, bled from the heart and organs taken. Serum chemistries were measured by standard automated procedures.

[6] = test system: rat pituitary cell; details: cited from earlier work
[7] = read-out: “Pit” Cell EC50, Table II, prior art compounds, GH release, 15 min incubation

Compound | GH response compared with control ([1]; 100 nM) | increase in GH levels over control ([1]; 100 nM) | GH release in combination with GHRH ([1]; GHRP 100 nM plus GHRH 10 or 100 nM) | Rat IV ED50 [2] | absorbed orally [3] | EC50 ([4]; read-out: mean EC50, mean ± SE of independent EC50s) | body weight gain (in words) [5] | fold less potent than GHRP-6 [6] | EC50 [4, 7] | potency in the rat pituitary cell assay [6]
C[C@H](NC(=O)[C@@H](Cc1c[nH]c2ccccc12)NC(=O)[C@@H](N)Cc1c[nH]cn1)C(=O)N[C@@H](Cc1c[nH]c2ccccc12)C(=O)N[C@H](Cc1ccccc1)C(=O)N[C@@H](CCCCN)C(N)=O [GHRP 6, His-D Trp-Ala-Trp-D Phe-Lys-NH2, reference compound] (H-H[dW]AW[dF]K-NH2) | significantly greater than control | 3 fold | show synergy with 10 nM GHRH; also recorded: synergistic; also recorded: showed synergy with GHRH | 1.0 µg | ~0.3% | 6.2 ± 1.5 nM | significant body weight gain |  |  | 
CC(C)(N)CC(=O)N[C@@H]1CCc2ccccc2N(Cc2ccc(-c3ccccc3-c3nnn[nH]3)cc2)C1=O [L-692,429, reference compound] |  |  |  | 100 µg |  |  |  | about 6 fold | 26.2 nM | 
C[C@@H](O)CNC(C)(C)CC(=O)N[C@@H]1CCc2ccccc2N(Cc2ccc(-c3ccccc3-c3nnn[nH]3)cc2)C1=O [L-692,585, reference compound] |  |  |  | 10 µg |  |  | no significant weight gain |  | 10.6 nM | slightly greater than GHRP-6
